How the values were obtained:
bedstraw = assay: Test B pre/postemergence bedstraw; format: in vivo, Galium aparine
In short: (§1)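 Herbicidal effect was estimated by eye on a ten-point control scale after plants spent twelve to sixteen days in a greenhouse following soil or foliar treatment. Foliar sprays targeted plants at one to four leaves; all doses were formulated in a non-phytotoxic solvent with surfactant.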

blackgrass = assay: Test B pre/postemergence blackgrass; format: in vivo, Alopecurus myosuroides
In short: as §1

surinam grass = assay: Test B pre/postemergence surinam grass; format: in vivo, Brachiaria decumbens
In short: as §1

corn = assay: Test B pre/postemergence corn; format: in vivo, Zea mays
In short: as §1

crabgrass = assay: Test B pre/postemergence crabgrass; format: in vivo, Digitaria sanguinalis
In short: as §1

giant foxtail = assay: Test B pre/postemergence giant foxtail; format: in vivo, Setaria faberii
In short: as §1

rape = assay: Test B pre/postemergence rape; format: in vivo, Brassica napus
In short: as §1

sugar beet = assay: Test B pre/postemergence sugar beet; format: in vivo, Beta vulgaris
In short: as §1

velvetleaf = assay: Test B pre/postemergence velvetleaf; format: in vivo, Abutilon theophrasti
In short: as §1

wheat = assay: Test B pre/postemergence wheat; format: in vivo, Triticum aestivum
In short: as §1

wild oat = assay: Test B pre/postemergence wild oat; format: in vivo, Avena fatua
In short: as §1

purple nutsedge = assay: Test B pre/postemergence purple nutsedge; format: in vivo, Cyperus rotundus
In short: as §1

rice = assay: Test B flood test rice; format: in vivo, Oryza sativa
In short: (§2)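 Flood test on plants grown to the 2-leaf stage; treated plants kept in greenhouse twelve to sixteen days, then visually rated against controls on a 0 (no effect) to 10 (complete control) scale.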

smallflower flatsedge = assay: Test B flood test smallflower flatsedge; format: in vivo, Cyperus difformis
In short: as §2

duck salad = assay: Test B flood test duck salad; format: in vivo, Heteranthera limosa
In short: as §2

bamyardgrass = assay: Test B flood test barnyardgrass; format: in vivo, Echinochloa crus-galli
In short: as §2

[1] = Preemergence, Rate 62 g/ha, scale of 0 to 10 where 0 is no effect and 10 is complete control
[2] = Preemergence, Rate 250 g/ha, scale of 0 to 10 where 0 is no effect and 10 is complete control
[3] = Rate 125 g/ha, Postemergence, scale of 0 to 10 where 0 is no effect and 10 is complete control
[4] = Rate 500 g/ha, Postemergence, scale 0 to 10, 0 no effect, 10 complete control
[5] = Preemergence, Rate 500 g/ha, scale of 0 to 10 where 0 is no effect and 10 is complete control
[6] = Rate 62 g/ha, Postemergence, scale 0 to 10 (0 no effect, 10 complete control)
[7] = Rate 250 g/ha, Postemergence, scale of 0 to 10 where 0 is no effect and 10 is complete control
[8] = Rate 62 g/ha, headed Pre-emergence (flood test species), scale 0 to 10 (0 no effect, 10 complete control)
[9] = Rate 125 g/ha, Pre-emergence, flood test species, scale 0 to 10 where 0 is no effect and 10 is complete control
[10] = Rate 250 g/ha, Pre-emergence, flood-test species, scale 0 to 10, 0 is no effect, 10 is complete control
[11] = Rate 500 g/ha, Pre-emergence, flood test species, scale 0 to 10 (0 no effect, 10 complete control)

Cc1cccc(C(C)(C)C)c1-n1c(=O)on(C(=O)N(c2ccccc2)C(C)C)c1=O [Compound 303]
0: Bedstraw plant response rating (bedstraw; [1]) | Bedstraw plant response rating (0 to 10 scale) (bedstraw; Preemergence, Rate 125 g/ha) | Bedstraw plant response rating (bedstraw; [2]) | Bedstraw plant response rating (bedstraw; [3]) | Bedstraw plant response rating (bedstraw; [4]) | Blackgrass plant response rating (blackgrass; [1]) | Blackgrass plant response rating (0 to 10 scale) (blackgrass; Preemergence, Rate 125 g/ha) | Blackgrass plant response rating (blackgrass; [2]) | Blackgrass plant response rating (blackgrass; [5]) | Blackgrass plant response rating (blackgrass; [6]) | Blackgrass plant response rating (blackgrass; [3]) | Plant response rating, Blackgrass (blackgrass; [7]) | Blackgrass plant response rating (blackgrass; [4]) | B. signalgrass plant response rating (surinam grass; [1]) | B. signalgrass plant response rating (0 to 10 scale, 0 is no effect, 10 is complete control) (surinam grass; Preemergence, Rate 125 g/ha) | B. signalgrass plant response rating (surinam grass; [2]) | B. signalgrass plant response rating (surinam grass; [5]) | B. signalgrass plant response rating (surinam grass; [6]) | B. signalgrass plant response rating (surinam grass; [3]) | Plant response rating, B. signalgrass (surinam grass; [7]) | B. signalgrass plant response rating (surinam grass; [4]) | Corn plant response rating (corn; [1]) | Corn plant response rating (0 to 10 scale) (corn; Preemergence, Rate 125 g/ha) | Corn plant response rating (corn; [2]) | Corn plant response rating (corn; [5]) | Corn plant response rating (corn; [6]) | Corn plant response rating (corn; [3]) | Plant response rating, Corn (corn; [7]) | Corn plant response rating (corn; [4]) | Crabgrass plant response rating (crabgrass; [1]) | Crabgrass plant response rating (0 to 10 scale) (crabgrass; Preemergence, Rate 125 g/ha) | Crabgrass plant response rating (crabgrass; [2]) | Crabgrass plant response rating (crabgrass; [6]) | Crabgrass plant response rating (crabgrass; [3]) | Plant response rating, Crabgrass (crabgrass; [7]) | Giant foxtail plant response rating (giant foxtail; [1]) | Giant foxtail plant response rating (0 to 10 scale) (giant foxtail; Preemergence, Rate 125 g/ha) | Giant foxtail plant response rating (giant foxtail; [2]) | Giant foxtail plant response rating (giant foxtail; [5]) | Giant foxtail plant response rating (giant foxtail; [6]) | Giant foxtail plant response rating (giant foxtail; [3]) | Plant response rating, Giant foxtail (giant foxtail; [7]) | Rape plant response rating (rape; [1]) | Rape plant response rating (0 to 10 scale) (rape; Preemergence, Rate 125 g/ha) | Rape plant response rating (rape; [2]) | Rape plant response rating (rape; [5]) | Rape plant response rating (rape; [6]) | Rape plant response rating (rape; [3]) | Plant response rating, Rape (rape; [7]) | Sugarbeets plant response rating (sugar beet; [1]) | Sugarbeets plant response rating (0 to 10 scale) (sugar beet; Preemergence, Rate 125 g/ha) | Sugarbeets plant response rating (sugar beet; [2]) | Sugarbeets plant response rating (sugar beet; [5]) | Sugarbeets plant response rating (sugar beet; [6]) | Sugarbeets plant response rating (sugar beet; [3]) | Plant response rating, Sugarbeets (sugar beet; [7]) | Velvetleaf plant response rating (velvetleaf; [1]) | Velvetleaf plant response rating (0 to 10 scale) (velvetleaf; Preemergence, Rate 125 g/ha) | Velvetleaf plant response rating (velvetleaf; [2]) | Velvetleaf plant response rating (velvetleaf; [5]) | Velvetleaf plant response rating (velvetleaf; [6]) | Velvetleaf plant response rating (velvetleaf; [3]) | Plant response rating, Velvetleaf (velvetleaf; [7]) | Wheat plant response rating (wheat; [1]) | Wheat plant response rating (0 to 10 scale) (wheat; Preemergence, Rate 125 g/ha) | Wheat plant response rating (wheat; [2]) | Wheat plant response rating (wheat; [5]) | Wheat plant response rating (wheat; [6]) | Wheat plant response rating (wheat; [3]) | Plant response rating, Wheat (wheat; [7]) | Wild oats plant response rating (wild oat; [1]) | Wild oats plant response rating (0 to 10 scale) (wild oat; Preemergence, Rate 125 g/ha) | Wild oats plant response rating (wild oat; [2]) | Wild oats plant response rating (wild oat; [5]) | Wild oats plant response rating (wild oat; [6]) | Wild oats plant response rating (wild oat; [3]) | Plant response rating, Wild oats (wild oat; [7]) | Nutsedge plant response rating (purple nutsedge; [1]) | Nutsedge plant response rating (purple nutsedge; [2]) | Nutsedge plant response rating (purple nutsedge; [5]) | Nutsedge plant response rating (purple nutsedge; [6]) | Nutsedge plant response rating (purple nutsedge; [3]) | Plant response rating, Nutsedge (purple nutsedge; [7]) | Rice plant response rating (rice; [8]) | Rice plant response rating (rice; [9]) | Rice plant response rating (rice; [10]) | Rice plant response rating (rice; [11]) | S. Flatsedge plant response rating (smallflower flatsedge; [8]) | S. Flatsedge plant response rating (smallflower flatsedge; [9]) | S. Flatsedge plant response rating (smallflower flatsedge; [10]) | S. Flatsedge plant response rating (smallflower flatsedge; [11]) | Ducksalad plant response rating (duck salad; [8]) | Ducksalad plant response rating (duck salad; [9]) | Ducksalad plant response rating (duck salad; [10]) | Ducksalad plant response rating (duck salad; [11]) | Barnyardgrass plant response rating (bamyardgrass; [8]) | Barnyardgrass plant response rating (bamyardgrass; [9]) | Barnyardgrass plant response rating (bamyardgrass; [10]) | Barnyardgrass plant response rating (bamyardgrass; [11])

From US6737383B1, “Herbicidal oxadiazolidines” (priority 1999, dated 2004)
